{
  "source": "patent US20050226924A1",
  "about": "“Composition comprising itraconazole for oral administration” (priority 2004, published 2005)",
  "key": {"[1]": {"settings": "cited from earlier work"}, "[2]": {"test": "Solubility test in dissolution medium (pH 1.2)", "format": "physicochemical", "settings": "dissolution medium (pH 1.2) of Korea Pharmacopeia, simulated gastric fluid, thermodynamic from solid; dissolution medium pH 1.2, shaken at 25° C. for 24 hours, HPLC; Mean ± SD, n = 3", "method": "Samples, equivalent to 30 mg of itraconazole, was added to […] of the test solution. The test solution used was the dissolution medium (pH 1.2) for dissolution test of Korea Pharmacopeia. After the samples were ultrasonicated for 30 minutes, they were shaked at 25° C. for 24 hours. Then, they were centrifuged at 3000 rpm for 20 minutes. The obtained supernatant was filtered using a 0.45 μm membrane filter, followed by 10-fold dilution with methanol. The content of itraconazole was measured by HPLC."}},
  "data": [
    {"smiles": "CCC(C)n1ncn(-c2ccc(N3CCN(c4ccc(OCC5COC(Cn6cncn6)(c6ccc(Cl)cc6Cl)O5)cc4)CC3)cc2)c1=O", "note": "(racemic) [Itraconazole, (±)-cis-4-[4-[4-[4-[[2-(2,4-dichlorophenyl)-2-(1H-1,2,4-triazole-1-yl-methyl)-1,3-dioxolane-4-yl]methoxy]phenyl]-1-piperazinyl]phenyl]-2,4-dihydro-2-(1-methylpropyl)-3H-1,2,4-triazole-3-one]", "values": [
      {"measurement": "Solubility in dichloromethane", "setting": "[1]; dichloromethane", "value": 239000, "unit": "µg/mL"},
      {"measurement": "Solubility in water", "setting": "[1]; water", "value": "less than 1 μg/ml"},
      {"measurement": "solubility at 24 h", "setting": "[2]", "value": "1.5 ± 0.7", "unit": "µg/mL"}
    ]}
  ]
}
